Measured values reported in ChEMBL document CHEMBL1944547, “Ethionamide boosters. 2. Combining bioisosteric replacement and structure-based drug design to solve pharmacokinetic issues in a series of potent 1,2,4-oxadiazole EthR inhibitors” (J Med Chem, 2012).
≈ marks a conversion by molar mass, not a printed value.

How the values were obtained:
in vitro = settings: CD-1, mouse, liver microsomes
Description: Half life in CD-1 mouse liver microsomes at 1 uM by LC-MS/MS analysis

[1] = Solubility of the compound in PBS buffer at pH 7.4 after 24 hrs by LC-MS analysis; format: physicochemical

Q: For `O=C(CCC(F)(F)F)N1CCC(c2nc(-c3cccs3)no2)CC1`, which half-life at 1 µM (in vitro) is on record?
A: 5 min

Q: Which half-life at 1 µM (in vitro) does the source give for `O=C(CCC(F)(F)F)N1CCC(c2nc(-c3nccs3)no2)CC1` here?
A: 34 min

Q: And the solubility at 24 h [1]?
A: 300 µg/mL (≈ 832 µM)

Q: Which half-life at 1 µM (in vitro) does the source give for `COc1ccc2nc(-c3noc(C4CCN(C(=O)CCC(F)(F)F)CC4)n3)sc2c1` here?
A: 6 min

Q: And the solubility at 24 h [1]?
A: 6 µg/mL (≈ 13.6 µM)

Q: With `O=C(CCC(F)(F)F)N1CCC(c2nc(-c3ccccc3)no2)CC1` as the compound, how does the solubility at 24 h [1] read?
A: 40 µg/mL (≈ 113 µM)

Q: For `O=C(CCCC(F)(F)F)N1CCC(c2nc(-c3nccs3)no2)CC1`, which half-life at 1 µM (in vitro) is on record?
A: 81 min
